Experimental data from patent publication EP2792360A1, “(1aR,12bS)-8-cyclohexyl-11-fluoro-N-((1-methylcyclopropyl)sulfonyl)-1a-((3-methyl-3,8-diazabicyclo[3.2.1]oct-8-yl)carbonyl)-1,1a,2,2b-tetrahydrocyclopropa[d]indolo[2,1-a][2]benzazepine-5-carboxamide for use in treating HCV” (IP Gesellschaft für Management mbH, priority 2013, dated 2014).
“Also recorded” adds a separate entry of the source. Counter-ions that a name gives are not always drawn. Like-named read-outs stand apart in the source and are kept apart here. Each block holds one compound with its values, some of them ahead of it.

How the values were obtained:
[1] = VT-XRPD / VH-XRPD / drying stability of HCl salt forms of Formula V; conditions: for stability of the salt form on drying under vacuum at room temperature: ca. 16 hours, XRPD
Protocol: The humidity was controlled by mixing streams of dry and wet nitrogen, with a total flow rate of 200 mL.min-1 The relative humidity was measured by a calibrated Rotronic probe (dynamic range of 1.0 - 100%RH), located near the sample. The weight change (mass relaxation) of the sample as a function of %RH was constantly monitored by the microbalance (accuracy ±0.005 mg). Approximately 5 - 20 mg of sample was placed in a tared mesh stainless steel basket under ambient conditions. […] A moisture sorption isotherm was performed as outlined below (2 scans giving 1 complete cycle). […] Data analysis was undertaken in Microsoft Excel using DVS Analysis Suite v6.0.0.7. […] XRPD: X-Ray Powder Diffraction patterns were collected either on a Bruker AXS C2 GADDS diffractometer or a Bruker AXS D8 diffractometer. […] The beam divergence, i.e. the effective size of the X-ray beam on the sample, was approximately 4 mm. […] In a typical experiment, the sampleis exposed to the X-ray beam for 120 seconds. The software used for data collectionwas GADDS for WNT 4.1.16 and the data were analyzed and presented using Diffrac PlusEVA vl 1.0.0.2 or vl3.0.0.2. Ambient conditions: Samples run under ambient conditions were prepared as flat plate specimens using powder as received without grinding. Approximately 1 - 2 mg of the sample was lightly pressed on aglass slide to obtain a flat surface. Non-ambient conditions: Samples run under non-ambient conditions were mounted on a silicon wafer with heat-conducting compound. The sample was then heated to the appropriate temperatureat 10.C.min_1and subsequently held isothermally for 1 minute before data collection was initiated. On a Bruker D8 diffractometer, the following parameters were used: Cu Ka radiation (40 kV, 40 mA), θ - 20 goniometer, and divergence of V4 and receiving slits, a Ge monochromator and a Lynxeye detector. […] The software used for data collection was Diffrac Plus XRD Commander v2.5.0 and the data were analyzed and presented using Diffrac Plus EVA vl 1.0.0.2 or vl3.0.0.2. Samples were run under ambient conditions as flat plate specimens using powder as received. The sample was gently packed into a cavity cut into polished, zero-background (510) silicon wafer. The sample was rotated in its own plane during analysis. The details of the data collection are: · Angular range: 2 to 42°2Θ, · Step size: 0.05°2Θ, · Collection time: 0.5 s/step.

[2] = Salt form assessment of the tosylate salt (chemical stability, disassociation, aqueous solubility); assay type: physicochemical
[3] = Relative stability (non-competitive and competitive interconversion) experiments of crystal forms of Compound 1; conditions: pXRD, DSC, 1H-NMR
Protocol: For the non-competitive experiments, only a single starting crystal form was used to study the potential conversion to another more stabb form. […] The slurry was cooled to 25-30 °C, filtered, suction dried for 1 hour and dried in a vacuum oven at 70 °C and 8 kPa absolute pressure for 12 hours. […] The slurry was cooled to 25-30 °C, filtered, suction dried for 1 hour and dried in a vacuum oven at 70 °C and 8 kPa absolute pressure for 12 hours. […] The slurry was cooled to 25-30 °C, filtered, suction dried for 1 hour and dried in a vacuum oven at 70 °C and 8 kPa absolute pressure for 12 hours.

[4] = Gravimetric vapour sorption (GVS) of salts of Formula V; assay type: physicochemical
[5] = Polymorphism assessment of HCl Pattern 2 (heat/cool cycles in solvents, XRPD); assay type: physicochemical
Excerpt: . […] Table 18. Results from the polymorph assessment

[6] = Characterization of scale-up HCl Pattern 2 (Tables 16-17); assay type: physicochemical; conditions: for TGA heat / cool experiments: IC / TGA heat / cool experiments: XRPD: cooled and re-analysed; for solubility thermodynamic: thermodynamic from solid
[7] = Solid form stability of forms of compound of formula (IV) (Temperature / Humidity Controlled XRPD, storage, suspension); assay type: physicochemical
Protocol: The term"XRPD" denotes the analytical method of X-Ray Powder Diffraction. XRPD patterns were recorded at ambient conditions in transmission geometry with a STOE STADI P diffractometer (Cu K alpha radiation source, primary monochromator, position sensitive detector, angular range 3° to 42° 2Theta, approximately 60 minutes total measurement time). The repeatability of the angular values is in the range of 2Theta ±0.2°. The term "approximately" given in combination with an angular value denotes the repeatability which is in the range of 2Theta ±0.2°. The samples were prepared and analyzed without further processing (e.g. grinding or sieving) of the substance. The relative XRPD peak intensity is dependent upon many factors such as structure factor, temperature factor, crystallinity, polarization factor, multiplicity, and Lorentz factor. Relative intensities may vary considerably from one measurement to another due to preferred orientation effects. Humidity Controlled XRPD analyses were performed in reflection geometry with a Siemens D5000 Diffractometer (Cu radiation source, Ni K beta filter, Scintillation detector, angular range 3° to 42° 2Theta, approximately 180 minutes total measurement time per humidity level). The diffractometer is equipped with an MRI (Materials Research Instruments) humidity chamber. The humidity within the chamber is adjusted with an ANSYCO humidity controller (SYCOS H-HOT). For single crystal structure analysis a single crystal sample was mounted in a nylon loop on a goniometer and measured at ambient conditions. Alternatively, the crystal was cooled in a nitrogen stream during measurement. Data were collected on a GEMINI R Ultra diffractometer from Oxford Diffraction. Cu-radiation of 1.54 A wavelength was used for data collection. Data was processed with the Oxford Diffraction CRYSALIS software. The crystal structure was solved and refined with standard crystallographic software. In this case the program ShelXTL from Bruker AXS (Karlsruhe) was used. The abbreviation "FWHM" denotes the full width at half maximum, which is a width of a peak (e.g. appearing in a spectrum, particularly in an XRPD pattern) at its half height. The term "sharp Bragg diffraction peak" in connection with X-ray diffraction patterns denotes a peak which is observed if Bragg' s law of diffraction is fulfilled. Generally, the FWHM of a sharp Bragg diffraction peak is less than 0.5° 2-theta. The term "amorphous halo" in connection with X-ray diffraction patterns denotes an approximately bell- shaped diffraction maximum in the X-ray powder diffraction pattern of an amorphous material. The FWHM of an amorphous halo is on principle larger than the FWHM of the peak of crystalline material. The terms "FTIR" and "IR" denote the analytical method of infrared spectroscopy. The IR-spectra of the samples are recorded as film of a Nujol suspension consisting of approx. 5 mg of sample and approx. 5 mg of Nujol (mineral oil) between two sodium chloride plates (cross section 13 mm) in transmittance with a FTIR- spectrometer. The spectra were recorded in spectral range between 4000 cm"1 and 600 cm"1, resolution 2 cm"1, and 300 coadded scans on a Magna 860 (thermo/Nicolet) equipped with a DTGS detector. The term "Raman" denotes the analytical method of Raman spectroscopy. For recording Raman spectra, the samples were spread on a glass slide. Raman spectra were recorded in the range of 150-3800 cm"1 with an ARAMIS (HoribaJobinYvon) Raman microscope equipped with a Peltier cooled CCD detector, at excitation of 633 nm, a 1200 1/mm grating, a x50 objective and with 3 exposures of 3s, or 7s for weak Raman scatterers. The term "DSC" denotes the analytical method of Differential Scanning Calorimetry. DSC thermograms were recorded using a Mettler-Toledo™ differential scanning calorimeter DSC820, DSC821 or DSC1 with a FRS05 sensor. […]

[8] = non-competitive, refluxed in deionized water at about 95 °C for 3 hours, TGA

stability of the salt form on drying under vacuum at room temperature [1]: partially reverted to the free base
Structure (SMILES): Nc1nc2cc(-c3ccc4ncc(C(=O)N5CCOCC5)n4c3)ccc2o1 [HCl Pattern 1, (6-(2-aminobenzo[d]oxazol-5-yl)imidazo[1,2-a]pyridin-3-yl)(morpholino)methanone]

aqueous solubility [2]: good aqueous solubility
stability with regard to disassociation ([2]; compared with other salts): greater stability
Structure (SMILES): Cc1ccc(S(=O)(=O)O)cc1.Nc1[nH]ncc1-c1cc(Cl)ccc1Oc1cc(F)c(S(=O)(=O)Nc2cscn2)cc1Cl [tosylate salt, 4-[2-(5-amino-1 H-pyrazol-4-yl)-4-chlorophenoxy]-5-chloro-2-fluoro-N-(1,3-thiazol-4-yl)benzenesulfonamide tosylate]
chemical stability ([2]; in particular with regard to formulation and storage): improved chemical stability over the free base

stability of the salt form on drying under vacuum at room temperature [1]: unstable salt form
Structure (SMILES): Nc1nc2cc(-c3ccc4ncc(C(=O)N5CCOCC5)n4c3)ccc2o1 [HCl Pattern 3, (6-(2-aminobenzo[d]oxazol-5-yl)imidazo[1,2-a]pyridin-3-yl)(morpholino)methanone]

crystal form of the resulting material [3, 8]: Form A
Structure (SMILES): COc1ccc(Cl)c(S(=O)(=O)NC(=O)c2cn3cc(C(F)(F)F)cc(Cl)c3n2)c1 [Form B ({drug1b}), 8-chloro-N-[(2-chloro-5-methoxyphenyl)sulfonyl]-6-(trifluoromethyl)-imidazo[1,2-a]pyridine-2-carboxamide]

crystal form of the resulting material ([3]; slurry in deionized water stirred at 25 °C for about 168 hours): Form A
Structure (SMILES): COc1ccc(Cl)c(S(=O)(=O)NC(=O)c2cn3cc(C(F)(F)F)cc(Cl)c3n2)c1 [mixed Forms A and B, 8-chloro-N-[(2-chloro-5-methoxyphenyl)sulfonyl]-6-(trifluoromethyl)-imidazo[1,2-a]pyridine-2-carboxamide]

crystal form of the resulting material [3, 8]: Form A
Structure (SMILES): COc1ccc(Cl)c(S(=O)(=O)NC(=O)c2cn3cc(C(F)(F)F)cc(Cl)c3n2)c1 [Form TS ({drug1e}), 8-chloro-N-[(2-chloro-5-methoxyphenyl)sulfonyl]-6-(trifluoromethyl)-imidazo[1,2-a]pyridine-2-carboxamide]

uptake at the end of the analysis (GVS) ([4]; 25°C, equating to a tri-hydrate): 10.6 wt%
GVS: XRPD after the experiment ([4]; at the end of the experiment): no significant changes noted by XRPD
relative humidity to which the form appeared to be stable (GVS) ([4]; dehydration below 30%, rehydration by 40%): 30 %RH
XRPD Result ([5]; Solvent DCM (entry -11)): HCl Pattern 2
XRPD Result ([5]; Solvent EtOAc (entry -08)): HCl Pattern 2
XRPD Result ([5]; Solvent EtOH (entry -02)): HCl Pattern 2
XRPD Result ([5]; Solvent IPA (10% water) (entry -06)): HCl Pattern 2
XRPD Result ([5]; Solvent IPA (entry -03)): HCl Pattern 2
XRPD Result ([5]; Solvent MEK (entry -09)): HCl Pattern 2
XRPD Result ([5]; Solvent MeCN (entry -05)): HCl Pattern 2
XRPD Result ([5]; Solvent MeOH (entry -01)): HCl Pattern 2
XRPD Result ([5]; Solvent Nitromethane (entry -12)): HCl Pattern 2
XRPD Result ([5]; Solvent TBME (entry -10)): HCl Pattern 2
XRPD Result ([5]; Solvent THF (5% water) (entry -07)): HCl Pattern 2
XRPD Result ([5]; Solvent THF (entry -04)): HCl Pattern 2
form by XRPD after polymorph assessment ([5]; freeze-dried material, 20 vols solvent, heat/cool cycles RT to 50°C for three days): known form HCl Pattern 2
KF [6]: 15.2 % water,
TGA heat / cool experiments: IC ([6]; Sample heated to 100°C): 1.6 eqsCl
TGA heat / cool experiments: XRPD ([6]; Sample heated to 100°C): Partially crystalline HCl Pattern 2
TGA heat / cool experiments: IC ([6]; Sample heated to 140°C): 1.7 eqs Cl
TGA heat / cool experiments: XRPD ([6]; Sample heated to 140°C): Partially crystalline HCl Pattern 2
IC ([6]; as determined): 1.7 eqs Cl (as determined)
TGA Weight loss ([6]; first step, by 100°C): 8%
solubility thermodynamic ([6]; pH 1, simulated gastric fluid, SGF (pH1.0)): 2800 µg/mL
XRPD (air dried) ([6]; scale-up HCl Pattern 2): New pattern (HCl Pattern 3)
TGA Weight loss ([6]; second step, to 140°C): 2.3%
solubility thermodynamic ([6]; simulated gastric fluid, 0.1N HCl (pH 0.9)): 3500 µg/mL
solubility thermodynamic ([6]; Water (pH 1.6)): 1600 µg/mL
TGA Weight loss ([6]; third step, to 210°C): 8.7%
VH-XRPD ([1]; between 45 and 80%RH): No change was noted between 45 and 80%RH
relative humidity to which the form is stable (VH-XRPD) ([1]; complete conversion to HCl Pattern 3 at 0.5%RH, reverted completely by 45%RH): 14 %RH
heating temperature for conversion to a new pattern (VT-XRPD) ([1]; reverted to partially crystalline HCl Pattern 2 upon cooling in air): above 80 °C
Structure (SMILES): Nc1nc2cc(-c3ccc4ncc(C(=O)N5CCOCC5)n4c3)ccc2o1 [HCl Pattern 2, (6-(2-aminobenzo[d]oxazol-5-yl)imidazo[1,2-a]pyridin-3-yl)(morpholino)methanone]
GVS ([4]; below 30%RH): Further reversible weight toss below 30%RH may indicate lower stoichiometry hydrate.
GVS ([4]; between 30-40%RH): Reversible dehydration observed between 30-40%RH.
GVS Reversible uptake ([4]; between 40-90%RH): Reversible uptake of ca. 6 wt% between 40-90%RH.
TGA heat / cool experiments ([6]; Sample heated to 210°C): Sample heated to 210°C, decomposition observed
Stability at 40°C/75%RH ([6]; XRPD, 3 weeks storage): No significant changes observed by XRPD after 3 weeks storage
KF ([6]; assuming 2 eqs Cl): corresponding to 4.3 eqs water, assuming 2 eqs Cl
IC ([6]; corrected with 15% w/w water content): 2.0 eqs Cl (corrected with 15% w/w water content)
XRPD (vacuum dried) ([6]; scale-up HCl Pattern 2): Crystalline. HCl Pattern 2; also recorded: Slight differences compared to HCl Pattern 2, possibly due to differences in crystallinity
VH-XRPD ([1]; lowering humidity, below 25%RH to 0.5%RH): The material starts to change below 25%RH, with full conversion to HCl Pattern 3 at 0.5%RH.
VH-XRPD ([1]; raising humidity, 13%RH to 45%RH): At 13%RH the material starts to revert back to HCl Pattern 2 with complete conversion by 45%RH.
VT-XRPD Heating to 100°C, then cool ([1]; scale-up HCl Pattern 2): Conversion to a new pattern at 80 °C (HCl 3), which returns to less crystalline HCl 2 upon cooling.
VT-XRPD Heating to 140°C ([1]; scale-up HCl Pattern 2): Conversion to HCl Pattern 3 at 80 °C that remains unchanged to 120°C, before losing crystallinity at higher temperature

crystal form of the resulting material [3, 8]: Form A
Structure (SMILES): COc1ccc(Cl)c(S(=O)(=O)NC(=O)c2cn3cc(C(F)(F)F)cc(Cl)c3n2)c1 [Form D ({drug1d}), 8-chloro-N-[(2-chloro-5-methoxyphenyl)sulfonyl]-6-(trifluoromethyl)-imidazo[1,2-a]pyridine-2-carboxamide]

Structure (SMILES): Cc1onc(-c2ccc(F)cc2)c1COc1ccc(C(=O)N2CCS(=O)(=O)CC2)cn1 [Form E ({drug4e}), (1,1-dioxo-1lambda6-thiomorpholin-4-yl)-{6-[3-(4-fluoro-phenyl)-5-methyl-isoxazol-4-ylmethoxy]-pyridin-3-yl]-methanone]
humidity at which rapid reconversion into Form B is observed [7]: > 5 rH
thermodynamic stability of the solid form [7]: only limited stability at ambient conditions
